Laboratory results published in patent publication US7262297B2, “Diaminopyrroloquinazolines compounds as protein tyrosine phosphatase inhibitors” (Hoffmann-La Roche Inc., priority 2003, dated 2007).

Target: T1, Human PTP1B (1-321) (Homo sapiens, UniProt P18031)
T1 construct: Human PTP1B (1-321) was cloned from a human cDNA library; made in house; host or cells: E. coli
T1 sequence (P18031 1-321): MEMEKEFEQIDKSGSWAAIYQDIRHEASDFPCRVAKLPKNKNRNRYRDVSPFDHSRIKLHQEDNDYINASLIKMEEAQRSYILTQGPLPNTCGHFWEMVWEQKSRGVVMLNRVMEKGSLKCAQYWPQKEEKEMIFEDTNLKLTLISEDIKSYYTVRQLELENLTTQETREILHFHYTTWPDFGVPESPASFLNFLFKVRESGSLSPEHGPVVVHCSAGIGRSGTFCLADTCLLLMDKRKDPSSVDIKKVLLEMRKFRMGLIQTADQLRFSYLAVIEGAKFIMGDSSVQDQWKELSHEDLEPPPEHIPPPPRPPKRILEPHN
Experiment: In vitro inhibition of PTP1B (PTPase assay, Malachite Green / DiFMUP)
Format: biochemical
Details: read-out: IC50 (μM), PTP1B inhibitory activity
Experimental: Human PTP1B (1-321) was cloned from a human cDNA library using conventional molecular biology techniques. The cDNA sequence was identical to the published human PTP1B sequence (Accession number M33689). The protein was expressed and purified from E. coli as described by Barford D. et.al, J. Mol Biol (1994) 239,726-730).
The measurement of PTPase activity was carried out using one of two methods:
The first method for the measurement of PTP1B inhibitory activity a tyrosine phosphorylated peptide based on the amino acid sequence of insulin receptor tyrosine autophosphorylation site 1146 (TRDI(pY)E) was used as substrate. The reaction conditions were as follows:
PTP1B (0.5-2nM ) was incubated with compound for 15 min in buffer containing 37.5 mM Bis-Tris buffer pH 6.2, 140 mMNaCl, 0.05% BSA and 2 mM DTT. The reaction was started by the addition of 50 μM substrate. After 20 min at room temperature (22-25° C.) the reaction was stopped with KOH and the amount of free phosphate measured using Malachite Green as previously described. (Harder et al. 1994 Biochem J. 298; 395).
The second method was used for the measurement of general PTPase inhibitory activity across a panel of PTPases the substrate (6,8-difluoro-4-methylumbelliferyl phosphate (DiFMUP; from Molecular Probes) was used at the Km for each enzyme. The buffer conditions were identical as in the Malachite Green assay. The reaction was stopped with KOH. In this case the dephosphoryated product becomes fluorescent and the fluorescence read. (Excitiation: […]/Emmission: 460 nM).

SMILES	IC50 [µM]
CCOc1cccc(-c2cc3nc(N)nc(N)c3c3cc[nH]c23)c1 [Example 2, 6-(3-Ethoxy-phenyl)-7H-pyrrolo[3,2-f]quinazoline-1,3-diamine]	23.8
Nc1nc(N)c2c(cc(-c3cccc([N+](=O)[O-])c3)c3[nH]ccc32)n1 [Example 4, 6-(3-Nitro-phenyl)-7H-pyrrolo[3,2-f]quinazoline-1,3-diamine]	89.5
Nc1nc(N)c2c(cc(-c3ccc(Cl)s3)c3[nH]ccc32)n1 [Example 6, 6-(5-Chloro-thiophen-2-yl)-7H-pyrrolo[3,2-f]quinazoline-1,3-diamine]	29.2
Nc1cccc(-c2cc3nc(N)nc(N)c3c3cc[nH]c23)c1 [Example 8, 6-(3-Amino-phenyl)-7H-pyrrolo[3,2-f]quinazoline-1,3-diamine]	24.1
